Residues, ends and D or L forms follow the SMILES beside them. *: point of attachment. Palmitoyl = CCCCCCCCCCCCCCCC(=O)*
Tests used:
TRPV6 R492Q = assay: Whole-cell patch clamp, TRPV6 R492Q; assay type: cell-based, human; settings: HEK293 cells, p < 0.05
Source text: N-terminally TagRFP-labeled human TRPV6 (725 aa) was kindly provided by R. Bhardwaj and M. Hediger (University of Bern, Bern, Switzerland). This variant is translated from the first ATG codon and thus deviates from the non-ATG-initiated protein which is expressed in vivo (accession number NM_018646.6) by lacking 40 amino acids of the very N-terminus. For N-terminal labeling with EYFP, TRPV6 was cloned into pEYFP-C1 (Clontech) via EcoRI and SacII restriction sites. Mutations (F468A, R470A, F472A, K484A/Q, G488R, R492A/Q, I575A, G579A, D580A/K, H582A, W583A/F, H587A, R589A, W593A, R632A/Q, R470A, W583F) were introduced using the QuickChange XL site-directed mutagenesis kit (Stratagene, San Diego, CA, USA) and Pfu DNA Polymerase (Promega, Madison, WI, USA). pTagRFP-hTRPV6 I575A was kindly provided by the lab of M. Hediger (University of Bern, Bern, Switzerland). Forward and reverse primers for site-directed mutagenesis were synthesized by Eurofins genomics GmbH (Wien, Vienna, Austria). Intactness of the constructs in terms of sequence was confirmed by sequencing (Microsynth Austria GmbH, Wien, Vienna, Austria; Eurofins genomics GmbH, Wien, Vienna, Austria). In the present experiments, Tag-RFP-labeled constructs were implemented for NFAT screens, patch clamp measurements, and Fura-2-based Ca^2+ imaging, while for R.Geco1.2 measurements, TRPV6 WT and mutants were used which carried an EYFP label at the N-terminus (pEYFP-C1 vector) to avoid spectral overlap. R.Geco1.2 was purchased from Addgene (No. 45494), and mCherry-CRY2-5ptase OCRL was established in the lab of P. De Camilli and was derived from Addgene (No. 66836), as was CIBN-CAAX (No. 79574). Plasmids encoding for mCerulean3-CRY2-5′ ptase OCRL, YFP-CIBN-CAAX, and the mCherry-tagged PH domain were provided by K. Groschner (Medical University of Graz, Graz, Austria). […]
(§1) Electrophysiological experiments were performed at 20 °C to 24 °C in whole-cell recording configurations of the patch clamp technique. […] The liquid junction potential was determined as 12 mV; the voltages were not adjusted. […]

TRPV6 G488R = assay: Whole-cell patch clamp, TRPV6 G488R; assay type: cell-based, human; settings: HEK293 cells; for inhibition of current (in words): Figure 2D
Source text: N-terminally TagRFP-labeled human TRPV6 (725 aa) was kindly provided by R. Bhardwaj and M. Hediger (University of Bern, Bern, Switzerland). This variant is translated from the first ATG codon and thus deviates from the non-ATG-initiated protein which is expressed in vivo (accession number NM_018646.6) by lacking 40 amino acids of the very N-terminus. For N-terminal labeling with EYFP, TRPV6 was cloned into pEYFP-C1 (Clontech) via EcoRI and SacII restriction sites. Mutations (F468A, R470A, F472A, K484A/Q, G488R, R492A/Q, I575A, G579A, D580A/K, H582A, W583A/F, H587A, R589A, W593A, R632A/Q, R470A, W583F) were introduced using the QuickChange XL site-directed mutagenesis kit (Stratagene, San Diego, CA, USA) and Pfu DNA Polymerase (Promega, Madison, WI, USA). pTagRFP-hTRPV6 I575A was kindly provided by the lab of M. Hediger (University of Bern, Bern, Switzerland). Forward and reverse primers for site-directed mutagenesis were synthesized by Eurofins genomics GmbH (Wien, Vienna, Austria). Intactness of the constructs in terms of sequence was confirmed by sequencing (Microsynth Austria GmbH, Wien, Vienna, Austria; Eurofins genomics GmbH, Wien, Vienna, Austria). In the present experiments, Tag-RFP-labeled constructs were implemented for NFAT screens, patch clamp measurements, and Fura-2-based Ca^2+ imaging, while for R.Geco1.2 measurements, TRPV6 WT and mutants were used which carried an EYFP label at the N-terminus (pEYFP-C1 vector) to avoid spectral overlap. R.Geco1.2 was purchased from Addgene (No. 45494), and mCherry-CRY2-5ptase OCRL was established in the lab of P. De Camilli and was derived from Addgene (No. 66836), as was CIBN-CAAX (No. 79574). Plasmids encoding for mCerulean3-CRY2-5′ ptase OCRL, YFP-CIBN-CAAX, and the mCherry-tagged PH domain were provided by K. Groschner (Medical University of Graz, Graz, Austria). […] CFP-NFAT (NFATc1, equivalent to NFAT2) was kindly provided by R. Kehlenbach (Scripps Research Institute, La Jolla, CA, USA).
Cultivation of human embryonic kidney (HEK) 293 cells occurred in DMEM supplemented with 10% fetal calf serum, penicillin (100 U/mL), and streptomycin (100 µg/mL) at 37 °C under humidified atmosphere containing 5% CO2. Transient transfection was performed 20–24 h prior to experiments using the TransFectin lipid reagent (Bio-Rad, Hercules, CA, USA), in accordance with the instructions of the supplier. For Ca^2+ imaging using R.Geco1.2, 2 μg of the indicator-encoding plasmid were additionally transfected, while 1 μg plasmid DNA was routinely used per construct in all other cases. […]
as §1

SMILES | sensitivity to peptide-based PIP2 sequestration vs WT (TRPV6 R492Q; 10 μM pal-PIP2 peptide, Figure 4D) | inhibition of current (TRPV6 G488R; 10 μM pal-PIP2 peptide, relative to 1 mM La3+, n=4, Figure S1E) | apparent inhibition of current (TRPV6 G488R; 20 μM pal-PIP2 peptide, 10 mM Ca2+, relative to 1 mM La3+, Figure 2B) | current inhibition vs TRPV6 WT (TRPV6 R492Q; 0.1 μM cis-22a) | current inhibition vs TRPV6 WT (TRPV6 R492Q; 10 μM cis-22a, after 0.1 μM) | inhibition of current (in words) (TRPV6 G488R; 0.1 µM cis-22a, 10 mM Ca2+) | inhibition of current (in words) (TRPV6 G488R; 10 µM cis-22a (hundredfold higher dose), after 0.1 µM)
CCCCCCCCCCCCCCCC(=O)N[C@@H](Cc1c[nH]cn1)C(=O)N[C@@H](CCCNC(=N)N)C(=O)N[C@@H](CCC(N)=O)C(=O)N[C@@H](CCCCN)C(=O)N[C@@H](Cc1c[nH]cn1)C(=O)N[C@@H](Cc1ccccc1)C(=O)N[C@@H](CCC(=O)O)C(=O)N[C@@H](CCCCN)C(=O)N[C@@H](CCCNC(=N)N)C(=O)N[C@@H](CCCNC(=N)N)C(N)=O [pal-PIP2 peptide] (Palmitoyl-HRQKHFEKRR-NH2) | significantly reduced sensitivity | ~ 4% | about 24% |  |  |  | 
Cc1cccc(C2CCC(N3CCN(c4cccnc4)CC3)CC2)c1.O=C(O)C(F)(F)F (stereo not drawn) [cis-22a] |  |  |  | significantly reduced | significantly reduced inhibition | not inhibited | essentially unaffected
